Reference: patent US20200345013A1, “ANTI-ADHERENT BOTANICAL COMPOSITIONS” (priority 2014, published 2020)

What was measured:
S. aureus = assay: High Throughput Anti-adherent Test, polystyrene, one-hour adhesion, S. aureus; assay type: cell-based, Staphylococcus aureus; details: agent 5% in water; percentage of microbes that remain attached to treated polystyrene; low = stronger anti-adherent effect; average +/- SD, n = 2
Description: (§1) The botanical extracts listed in Table 3 were initially screened for their effect against microbial adhesion using the High Throughput Anti-adherent Test Method described below. The effect of the botanical filtrates as the percentage of control-corrected A490 is shown. For bacterial strains, the corrected A490 were all less than 20% of the untreated control. For C. albicans, the corrected A490 of the botanical filtrates were less than 70% of the untreated control. The lower percentage value indicates a stronger inhibitory effect.
(§2) II. High Throughput Anti-Adherence Test Method
(§3) This test method specifies the operational parameters required to grow and or prevent the formation of bacterial attachment using a high throughput screening assay. The assay device consists of a plastic lid with ninety-six (96) pegs and a corresponding receiver plate with ninety-six (96) individual wells that have a maximum 200 μL working volume. Biofilm is established on the pegs under static batch conditions (i.e., no flow of nutrients into or out of an individual well). • 1. […]

[1] = system: Klebsiella pneumonia CICC 21519 (ATCC 4352); assay: Screening anti-adhesion effect on porcine skin, K. pneumoniae; assay type: cell-based, Klebsiella pneumoniae; details: two-hour adhesion time, Table 2
Procedure: Klebsiella pneumonia CICC 21519 (ATCC 4352) and Staphylococcus aureus CICC 10384 (ATCC 6538P) were purchased from China Center of Industrial Culture Collection. • 2. […] Dilutions of overnight cultures in PBS buffer were used for the screening.
Aliquots (100 μL) of botanical/compounds suspensions were applied to porcine skins, three replicates. • 3. Skins were allowed to air dry for 2 hours at ˜50% relative humidity. • 4. Inocula (100 μL) were applied to the porcine skin, and incubated at 37° C. for 2 hours. • 5. The skins were washed three times by applying 5 ml of PBS+0.01% Tween 80 onto the skins and then removing the liquid by pipetting. • 6. […] Microbial cells were enumerated by spread plate method. • a. […] For S. aureus and K. pneumoniae, the suspension and dilutions were plated onto TSA, and incubated at 37° C. for 1 day. • 8. After incubation, colonies on plates were counted. Reduction (%) of colony forming unit (CFU) from the average counts on untreated skin was calculated. • 9.

K. pneumoniae = assay: High Throughput Anti-adherent Test, polystyrene, one-hour adhesion, K. pneumoniae; assay type: cell-based, Klebsiella pneumoniae; details: agent 5% in water; percentage of microbes that remain attached to treated polystyrene; low = stronger anti-adherent effect; average +/- SD, n = 2
Description: as §1, §2, §3

[2] = system: Staphylococcus aureus CICC 10384 (ATCC 6538P); assay: Screening anti-adhesion effect on porcine skin, S. aureus; assay type: cell-based
Procedure: Preparation of Bacterial Cell Suspensions • 1. Klebsiella pneumonia CICC 21519 (ATCC 4352) and Staphylococcus aureus CICC 10384 (ATCC 6538P) were purchased from China Center of Industrial Culture Collection. • 2. Stock culture of each species was streaked onto TSA plate (OXOID, […], England) and incubated at 37° C. overnight. • 3. Single colonies were subcultured in TSB (OXOID, […], England) and incubated 37° C., 200 rpm overnight. • 4. Dilutions of overnight cultures in PBS buffer were used for the screening.
Screening the Anti-Adhesion Effect of Botanicals/Compounds on Porcine Skin • 1. Porcine skins were aseptically cut to squares of 2×2 cm, and each was placed in a sterile Petri dish (CITOTEST LABWARE MANUFACTURING CO., LTD, Haimen, Jiangsu). • 2. Aliquots (100 μL) of botanical/compounds suspensions were applied to porcine skins, three replicates. • 3. Skins were allowed to air dry for 2 hours at ˜50% relative humidity. • 4. Inocula (100 μL) were applied to the porcine skin, and incubated at 37° C. for 2 hours. • 5. […] After incubation, colonies on plates were counted. Reduction (%) of colony forming unit (CFU) from the average counts on untreated skin was calculated. • 9. […] After incubation, plaques on plates were counted. • d. Reduction (%) of plaque forming unit (PFU) from the average counts on untreated skin was calculated.

C. albicans SC5314 = assay: Screening anti-adhesion effect on porcine skin, C. albicans; assay type: cell-based, Candida albicans; details: agent 5% in water, 2 h adhesion, average +/- SD, n = 2, positive = anti-adherent
Procedure: Preparation of C. albicans Cell Suspension • 1. Single cell suspension of C. albicans SC5314 was prepared as follows. Stock culture of C. albicans SC5314 was streaked onto YPD agar (YPDA) and incubated at 30° C. overnight. • 2. Single colonies were subcultured in YPD broth (YPDB) and incubated 30° C., 200 rpm overnight. • 3. Overnight culture in YPDB was subcultured in YPD broth again and incubated 30° C., 200 rpm for 48 hours. • 4. Cells were collected by centrifugation (4000×g, 10 minutes) at 4° C., washed three times with sterile water, and then resuspended in sterile water a final concentration of 10^9 CFU/mL. • 5. The suspension were stored at 4° C. at least 1 day, then subcultured into YPDB to a final concentration of 10^6 CFU/mL. • 6. After 48 hours incubation, cell suspension was examined under microscope for single cell percentage. • 7. […]
Screening the Anti-Adhesion Effect of Botanicals/Compounds on Porcine Skin • 1. […] After incubation, colonies on plates were counted. Reduction (%) of colony forming unit (CFU) from the average counts on untreated skin was calculated. • 9. […] After incubation, plaques on plates were counted. • d. Reduction (%) of plaque forming unit (PFU) from the average counts on untreated skin was calculated.

C. albicans = assay: High Throughput Anti-adherent Test, polystyrene, one-hour adhesion, C. albicans; assay type: cell-based, Candida albicans; details: agent 5% in water; percentage of microbes that remain attached to treated polystyrene; low = stronger anti-adherent effect; bracketed = adherent effect; * = single measurement, else n = 2
Description: as §1, §2, §3

Oc1ccc(C=Cc2cc(O)cc(O)c2)cc1 [Resveratrol] was tested. Which “Reduction of Adherent Cells (%) from Polystyrene Control (One-Hour Adhesion Time), S. aureus” value (S. aureus) did it give?
Its value is 8.0 ± 9.9%.

What about the “Anti-adherence on porcine skin in words, K. pneumonia” value [1] of the same compound?
Its value is “failed to demonstrate anti-adherence”.

And the “Reduction of Adherent Cells (%) from Polystyrene Control (One-Hour Adhesion Time), K. pneumoniae” value (K. pneumoniae)?
The value was 7.0 ± 2.8%.

And the “Reduction of Adherent Cells (%) from Porcine Skin Control (Two-Hour Adhesion Time), S. aureus” value ([2]; agent 5% in water, 2 h adhesion, average +/- SD, n = 2, positive = anti-adherent)?
The value was −4.2 ± 19.1%.

And the “Anti-adherence on porcine skin in words, S. aureus” value ([2]; two-hour adhesion time, Table 2)?
The value was “failed to demonstrate anti-adherence”.

And the “Reduction of Adherent Cells (%) from Porcine Skin Control (Two-Hour Adhesion Time), C. albicans” value (C. albicans SC5314)?
Its value is 29.8 ± 11.2%.

What about the “Reduction of Adherent Cells (%) from Polystyrene Control (One-Hour Adhesion Time), C. albicans” value (C. albicans) of the same compound?
The value was 25.5 ± 4.9%.
